Test results as given in ChEMBL document CHEMBL3244225, “Synthesis and biological activity of some vinyl-substituted 2-nitroimidazoles” (J Med Chem, 1977).
≈ marks a conversion by molar mass, not a printed value.

Columns and labels:
Staphylococcus aureus = assay: Antimicrobial activity against Staphylococcus aureus Tour by tube dilution method; assay type: functional
Streptococcus pneumoniae = assay: Antimicrobial activity against Diplococcus pneumoniae UC41 by tube dilution method; assay type: functional
Proteus vulgaris = assay: Antimicrobial activity against Proteus vulgaris X19 H ATCC 881 by tube dilution method; assay type: functional
Escherichia coli = assay: Antimicrobial activity against Escherichia coli SKF 12140 by tube dilution method; assay type: functional
Shigella sonnei = assay: Antimicrobial activity against Shigella sonnei ATCC 9290 by tube dilution method; assay type: functional
Salmonella typhimurium = assay: Antimicrobial activity against Salmonella typhimurium Kh by tube dilution method; assay type: functional, Salmonella enterica subsp. enterica serovar Typhimurium; details: Salmonella enterica
Klebsiella pneumoniae = assay: Antimicrobial activity against Klebsiella pneumoniae I.S.M. by tube dilution method; assay type: functional
Pseudomonas aeruginosa = assay: Antimicrobial activity against Pseudomonas aeruginosa ATCC 10145 by tube dilution method; assay type: functional
[1] = tested on: Mycobacterium tuberculosis; assay: Antimicrobial activity against Mycobacterium tuberculosis ATCC 9360 by tube dilution method; assay type: functional
Streptococcus pyogenes = assay: Antimicrobial activity against Streptococcus haemolyticus C 203 by tube dilution method; assay type: functional
Clostridium perfringens = assay: Antimicrobial activity against Clostridium perfringens ISS 30543 by tube dilution method; assay type: functional
Candida albicans = assay: Antimicrobial activity against Candida albicans SKF 2270 by tube dilution method; assay type: functional
[2] = tested on: Trichophyton mentagrophytes; assay: Antimicrobial activity against Trichophyton mentagrophytes SKF 17410 by tube dilution method; assay type: functional
Trichomonas vaginalis [3] = assay: Trichomonastatic activity against Trichomonas vaginalis by tube dilution method; assay type: functional
Trichomonas vaginalis [4] = assay: Trichomonacidal activity against Trichomonas vaginalis by tube dilution method; assay type: functional
Trichomonas vaginalis [5] = assay: Antimicrobial activity against Trichomonas vaginalis infected in sc dosed mouse; assay type: functional
Trichomonas vaginalis [6] = assay: Ratio of metronidazole ED50 to compound ED50 for Trichomonas vaginalis infected in sc dosed mouse; assay type: functional
[7] = Toxicity in po dosed mouse infected with Trichomonas vaginalis; assay type: organism-based; details: in vivo
[8] = tested on: Mycoplasmoides gallisepticum; assay: Antimicrobial activity against Mycoplasma gallisepticum H21 C.Z.B. by tube dilution method; assay type: functional

Structure (SMILES) | MIC (Staphylococcus aureus) | MIC (Streptococcus pneumoniae) | MIC (Proteus vulgaris) | MIC (Escherichia coli) | MIC (Shigella sonnei) | MIC (Salmonella typhimurium) | MIC (Klebsiella pneumoniae) | MIC (Pseudomonas aeruginosa) | MIC [1] | MIC (Streptococcus pyogenes) | MIC (Clostridium perfringens) | MIC (Candida albicans) | MIC [2] | MIC (Trichomonas vaginalis [3]) | MIC (Trichomonas vaginalis [4]) | ED50 (Trichomonas vaginalis [5]) | Ratio ED50 (Trichomonas vaginalis [6]) | LD50 [7] | MIC [8]
O=C1CN(/N=C/c2ccc([N+](=O)[O-])o2)C(=O)N1 [NITROFURANTOIN] | 10 µg/mL (≈ 42 µM) | 1 µg/mL (≈ 4.2 µM) | 100 µg/mL (≈ 420 µM) | 5 µg/mL (≈ 21 µM) | 10 µg/mL (≈ 42 µM) | 20 µg/mL (≈ 84 µM) | 50 µg/mL (≈ 210 µM) | > 100 µg/mL | 50 µg/mL (≈ 210 µM) |  |  |  |  |  |  |  |  |  | 
C=Cc1cnc([N+](=O)[O-])n1C | 50 µg/mL (≈ 326 µM) | > 100 µg/mL | 100 µg/mL (≈ 653 µM) | 10 µg/mL (≈ 65.3 µM) | 20 µg/mL (≈ 131 µM) | 5 µg/mL (≈ 32.6 µM) | 10 µg/mL (≈ 65.3 µM) | 20 µg/mL (≈ 131 µM) | 20 µg/mL (≈ 131 µM) | > 100 µg/mL | 0.5 µg/mL (≈ 3.26 µM) | 100 µg/mL (≈ 653 µM) | 50 µg/mL (≈ 326 µM) | 1 µg/mL (≈ 6.53 µM) | 1 µg/mL (≈ 6.53 µM) | 14 mg/kg | 3 | 480 mg/kg | 
Cn1c(/C=[N+](/C)[O-])cnc1[N+](=O)[O-] | 50 µg/mL (≈ 272 µM) | 50 µg/mL (≈ 272 µM) | 20 µg/mL (≈ 109 µM) | 10 µg/mL (≈ 54.3 µM) | 20 µg/mL (≈ 109 µM) | 20 µg/mL (≈ 109 µM) | 50 µg/mL (≈ 272 µM) | 100 µg/mL (≈ 543 µM) | 50 µg/mL (≈ 272 µM) | 50 µg/mL (≈ 272 µM) | 10 µg/mL (≈ 54.3 µM) | > 100 µg/mL | > 100 µg/mL | 100 µg/mL (≈ 543 µM) | > 100 µg/mL |  |  |  | 20 µg/mL (≈ 109 µM)
COC(=O)/C=C/c1cnc([N+](=O)[O-])n1C | > 100 µg/mL | > 100 µg/mL | > 100 µg/mL | 50 µg/mL (≈ 237 µM) | 100 µg/mL (≈ 474 µM) | 100 µg/mL (≈ 474 µM) | > 100 µg/mL | > 100 µg/mL | 50 µg/mL (≈ 237 µM) | > 100 µg/mL | > 100 µg/mL | > 100 µg/mL | 100 µg/mL (≈ 474 µM) | 10 µg/mL (≈ 47.4 µM) | 50 µg/mL (≈ 237 µM) |  | >2.8 | > 1000 mg/kg | > 100 µg/mL
C=Cn1c(C)cnc1[N+](=O)[O-] | > 100 µg/mL | > 100 µg/mL | > 100 µg/mL | > 100 µg/mL | > 100 µg/mL | > 100 µg/mL | > 100 µg/mL | > 100 µg/mL | > 100 µg/mL | > 100 µg/mL | > 100 µg/mL | > 100 µg/mL | > 100 µg/mL | 20 µg/mL (≈ 131 µM) | 50 µg/mL (≈ 326 µM) |  | 0.6 | 75 mg/kg | > 100 µg/mL
Br.CC(/C=C/c1cnc([N+](=O)[O-])n1C)=N\NC1=NCCN1 | 50 µg/mL | 20 µg/mL | > 100 µg/mL | 100 µg/mL | > 100 µg/mL | > 100 µg/mL | > 100 µg/mL | > 100 µg/mL | > 100 µg/mL | 20 µg/mL | 100 µg/mL | > 100 µg/mL | > 100 µg/mL | 20 µg/mL | 100 µg/mL |  |  |  | 100 µg/mL
CC(=O)c1cnc([N+](=O)[O-])n1C | 50 µg/mL (≈ 296 µM) | 20 µg/mL (≈ 118 µM) | 100 µg/mL (≈ 591 µM) | 10 µg/mL (≈ 59.1 µM) | 50 µg/mL (≈ 296 µM) | 100 µg/mL (≈ 591 µM) | 100 µg/mL (≈ 591 µM) | > 100 µg/mL | 50 µg/mL (≈ 296 µM) | 100 µg/mL (≈ 591 µM) | 20 µg/mL (≈ 118 µM) | > 100 µg/mL | 50 µg/mL (≈ 296 µM) | 50 µg/mL (≈ 296 µM) | > 100 µg/mL |  |  |  | 100 µg/mL (≈ 591 µM)
Cn1c(C=O)cnc1[N+](=O)[O-] | 50 µg/mL (≈ 322 µM) | 20 µg/mL (≈ 129 µM) | 50 µg/mL (≈ 322 µM) | 10 µg/mL (≈ 64.5 µM) | 20 µg/mL (≈ 129 µM) | 2 µg/mL (≈ 12.9 µM) | 10 µg/mL (≈ 64.5 µM) | 10 µg/mL (≈ 64.5 µM) | 10 µg/mL (≈ 64.5 µM) | 50 µg/mL (≈ 322 µM) | 10 µg/mL (≈ 64.5 µM) | 50 µg/mL (≈ 322 µM) | 10 µg/mL (≈ 64.5 µM) | 100 µg/mL (≈ 645 µM) | > 100 µg/mL |  |  |  | 
CC(/C=C/c1cnc([N+](=O)[O-])n1C)=N\N1CCCC(O)C1 (stereo not drawn) | 20 µg/mL (≈ 68.2 µM) | 100 µg/mL (≈ 341 µM) | > 100 µg/mL | 100 µg/mL (≈ 341 µM) | > 100 µg/mL | > 100 µg/mL | > 100 µg/mL | > 100 µg/mL | 50 µg/mL (≈ 170 µM) | > 100 µg/mL | 20 µg/mL (≈ 68.2 µM) | > 100 µg/mL | 100 µg/mL (≈ 341 µM) | 20 µg/mL (≈ 68.2 µM) | 50 µg/mL (≈ 170 µM) |  |  |  | > 100 µg/mL
Cc1cnc(/N=C/C=C/c2cnc([N+](=O)[O-])n2C)n1C | > 20 µg/mL | > 20 µg/mL | > 20 µg/mL | > 20 µg/mL | > 20 µg/mL | > 20 µg/mL | > 20 µg/mL | > 20 µg/mL | > 20 µg/mL | > 20 µg/mL | 10 µg/mL (≈ 36.5 µM) | > 20 µg/mL | > 20 µg/mL | 50 µg/mL (≈ 182 µM) | 100 µg/mL (≈ 365 µM) |  |  |  | > 20 µg/mL
